The target in test [1] is T1, ‘TesA (Escherichia coli, UniProt P0ADA1).
T1 sequence (P0ADA1 27-208): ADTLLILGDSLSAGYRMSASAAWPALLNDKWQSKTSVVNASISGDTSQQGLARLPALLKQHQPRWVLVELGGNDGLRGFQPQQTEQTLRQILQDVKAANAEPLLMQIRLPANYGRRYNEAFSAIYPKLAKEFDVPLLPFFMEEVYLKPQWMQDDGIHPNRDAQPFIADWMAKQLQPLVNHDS
As to the kind of experiment: DTNB assay at […] nm, free CoA release. The class given is biochemical. The settings on record: 0-120 µM substrate, 40 nM enzyme.

Test [2] deals with T1, ‘TesA. As to the kind of experiment: X-ray crystal structure, […] A. Format: binding. The settings on record: 3 mM octanoic acid, Homo-PIPES pH 5.0.

As to `CCCCCCCC(=O)SCCNC(=O)CCNC(=O)[C@H](O)C(C)(C)COP(=O)(O)OP(=O)(O)OC[C@H]1O[C@@H](n2cnc3c(N)ncnc32)[C@H](O)[C@@H]1OP(=O)(O)O` [C8-CoA, octanoyl-CoA], the “DTNB assay at 412 nm, free CoA release” value on ‘TesA [1] was “‘TesA WT and R3.M4 activity on C8-CoA”.

With `CCCCCCCC(=O)O` [C8, octanoic acid], at ‘TesA [2], the “X-ray crystal structure, 1.65 A” value is “Crystal structures of WT ‘TesA and R3.M4 bound to octanoic acid were solved”.

On to `CCCCCCCCCCCC(=O)SCCNC(=O)CCNC(=O)[C@H](O)C(C)(C)COP(=O)(O)OP(=O)(O)OC[C@H]1O[C@@H](n2cnc3c(N)ncnc32)[C@H](O)[C@@H]1OP(=O)(O)O` [C12-CoA, dodecanoyl-CoA], for which the “DTNB assay at 412 nm, free CoA release” value at ‘TesA [1] is “highest in vitro ‘TesA WT activity (Figure 7A) was observed for C12-CoA, C14-CoA and C16-CoA”.

Values taken from article PMC5784442 (ACS catalysis, 2017).
